Measured values taken from patent publication US4939138A, “2- and 3-aminomethyl-6-arylcarbonyl-2,3-dihydropyrrolo(1,2,3-DE)-1,4-benzoxazin es” (Sterling Drug Inc., priority 1989, dated 1990).

What was measured:
[1] = test system: acetic acid-induced writhing; assay: inhibition of acetic acid-induced writhing in the rat (RW); type: in vivo, rat (male Sprague Dawley); conditions: Rattus norvegicus; oral
Procedure: (§1) In order to further detail the analgesic profiles of the compounds of the invention, their activities in the inhibition of acetic acid-induced writhing assay in the rat, the inhibition of cyclooxygenase assay and a modification of the Randall-Selitto analgesic test were also determined The test procedure used to determine the inhibition of acetic acid-inducedwrithing in the rat is described as follows.
Male Sprague Dawley rats (Taconic Farms) weighing between 160 and 200g were treated in a random and blind fashion with 1% gum tragacanth vehicle or test agent suspended or dissolved in 1% gum tragacanth. Rats were individually housed in plastic cages (28×18×12 cm) throughout the experiment. Forty-five minutes after drug treatment, 0.5 ml of 9% (w/v) acetic acid was administered intraperitoneally, and animals were returned to their cages for 10 minutes. Writhing is not normally seen during this 10 minute period. Each animal was then observed for a writhing response during a subsequent 10 minute interval (55-65 minutes post-drug treatment). A writhing response was defined as arching of the back with extension of the hindlimbs and contraction of abdominal muscles. […] Data were expressed as percent inhibition of the mean number of writhes in the vehicle treated control group. Data were evaluated for statistical significance by Dunnett's test, and ED50 's for inhibition of acetic acid-induced writhing were determined by the graded dose-response analysis of Tallarida and Murray, Manual of Pharmacologic Calculations with Computer Programs, Springer Verlag, New York (1981).
(§2) In the acetylcholine-induced abdominal constriction test, the test compounds were administered either as suspensions in gum tragacanth (GT) or as aqueous solutions prepared by addition of just sufficient dilute aqueous methanesulfonic acid (MS) or dilute aqueous lactic acid (LA) to dissolve the compound The compounds are identified by the example number above where their preparations are described All data in the anti-bradykinin, rat writhing and Randall-Selitto tests were obtained on oral administration.

[2] = test system: bradykinin; assay: anti-bradykinin test (BDK/BRKD); type: in vivo; conditions: oral
From the text: The test procedures used to determine the analgesic activities of the compounds have been described in detail in the prior art and are as follows: The acetylcholine-induced abdominal constriction test, which is a primary analgesic screening test designed to measure the ability of a test agent to suppress acetylcholine-induced abdominal constriction in mice, described by Collier et al., Brit. J. Pharmacol. Chemotherap. 32, 295 (1968); a modification of the anti-bradykinin test, which is also a primary analgesic screening procedure, described by Berkowitz et al., J. Pharmacol. Exptl Therap. 177, 500-508 (1971), Blane et al., J. Pharm. Pharmacol 19, 367-373 (1967), Botha et al., Eur. J. Pharmacol. 6, 312-321 (1969) and Deffenu et al., J. Pharm. Pharmacol. 18, 135 (1966); the rat paw flexion test, described by Kuzuna et al., Chem. Pharm. Bull., 23, 1184-1191 (1975), Winter et al., J. Pharm. Exptl. Therap., 211, 678-685 (1979) and Capetola et al., J. Pharm. Exptl. Therap. 214, 16-23 (1980); and the mouse vas deferens adrenergic transmission test, described by Henderson et al., Brit. J. Pharmacol., 46, 764-766 (1972). […]

[3] = test system: acetylcholine-induced abdominal constriction; assay: acetylcholine-induced abdominal constriction test (ACH); type: in vivo, mice; conditions: for ED50: Mus musculus
From the text: The test procedures used to determine the analgesic activities of the compounds have been described in detail in the prior art and are as follows: The acetylcholine-induced abdominal constriction test, which is a primary analgesic screening test designed to measure the ability of a test agent to suppress acetylcholine-induced abdominal constriction in mice, described by Collier et al., Brit. J. Pharmacol. Chemotherap. 32, 295 (1968); a modification of the anti-bradykinin test, which is also a primary analgesic screening procedure, described by Berkowitz et al., J. Pharmacol. Exptl Therap. 177, 500-508 (1971), Blane et al., J. Pharm. Pharmacol 19, 367-373 (1967), Botha et al., Eur. J. Pharmacol. 6, 312-321 (1969) and Deffenu et al., J. Pharm. Pharmacol. 18, 135 (1966); the rat paw flexion test, described by Kuzuna et al., Chem. Pharm. Bull., 23, 1184-1191 (1975), Winter et al., J. Pharm. Exptl. Therap., 211, 678-685 (1979) and Capetola et al., J. Pharm. Exptl. Therap. 214, 16-23 (1980); and the mouse vas deferens adrenergic transmission test, described by Henderson et al., Brit. J. Pharmacol., 46, 764-766 (1972).
as §2

[4] = test system: brewers' yeast-induced hyperalgesia; assay: modification of the Randall-Selitto analgesic (paw pressure) test (R-S); type: in vivo, rat (Sprague-Dawley); conditions: Rattus norvegicus; oral; read-out: R-S minimum effective dose, MED
Procedure: as §1
The modification of the Randall-Selitto analgesic test procedure used is described as follows:
Female Sprague-Dawley rats, weighing 60 to 95 grams, were routinely used. […] The rats were housed 10 per cage with food and water available ad libitum.
The Randall-Selitto Test device used was a UGO Basile Analgesy Meter (catalog no. 7200), with the flat-topped plinth on the bottom, acting as a platform upon which the hind paw of the rat was placed and the round-pointed pusher oriented downward. […]
Animals were given the test drug, p.o., two hours after the sub-plantar injection, four doses customarily being given, along with vehicle control and a positive control (Zomepirac). […] Treatments were assigned in such a way that both the range and the means of the baseline readings were as nearly equal as possible for all treatments. […]
Results were analyzed with the Student's t-test. […]

[5] = test system: cyclooxygenase; assay: inhibition of cyclooxygenase assay (CO); type: biochemical, mice; conditions: 30 μM; negative values = increases over controls, not demonstrated to differ significantly
Procedure: as §1
The test procedure used to determine cyclooxygenase inhibitory activity is described as follows.
Male mice were decapitated and stomach and brain (cerebral cortex, hypothalamus and medulla) were rapidly dissected over ice. The brains were homogenized in 3 volumes of ice cold 0.1 M potassium phosphate buffer, pH 7.4 containing 10 mM EDTA and 1% BSA (w/v). The homogenate was centrifuged at 10,000 xg for 15 minutes. The resulting supernatant was decanted and centrifuged at 100,000 xg for 60 minutes yielding a crude microsomal pellet. The pellet was washed superficially three times in 3 volumes of 0.1 M potassium phosphate buffer before final resuspension in 1.5 volumes of 0.1 M potassium phosphate buffer containing 1 mM norepinephrine and 1 mM reduced glutathione. The microsomes (50 μl) were preincubated with 50 μl of indomethacin (0.3 μM), test compound or norepinephrine/glutathione-containing buffer for 5 minutes at room temperature. The enzyme reaction was initiated by the addition of 50 μl of ^14 C arachidonic acid to yield a final concentration of 10 μM. After a further incubation of 15 minutes at 37° C., the reaction was stopped by the addition of 50 μl of 4M formic acid. Blank values were determined by using microsomes boiled for 5 minutes but otherwise were treated similarly. The ^14 C-labelled material was extracted 3 times with 0.5 ml of ethyl acetate with intermediate centrifugations at 500 xg for 5 minutes to clarify the aqueous and organic phases. This procedure extracted >95% of the ^14 C-labelled materials. The ethyl acetate washes were added to tubes containing 5 μg each of PGE2, PGF2, PGD2, and 10 μg PGI2 in 25 μl of ethanol. The mixture was evaporated to dryness under nitrogen and the residue dissolved in 150 μl of chloroform:methanol (2:1). This solution was spotted on 5×20 cm silica gel plates and chromatographed with an ethyl acetate, trimethylpentane, acetic acid and water mixture (110:50:20:100 by volume) prepared by shaking the solvents and separating and discarding the organic phase. The prostaglandins were visualized in iodine vapor, the various spots were scraped, and the ^14 C-labelled prostaglandins quantitated by liquid scintillation spectroscopy in 10 ml of BIOFLUOR® or FLUORODYNE®.
as §2

## Cc1c(C(=O)c2cccc3ccccc23)c2cccc3c2n1C(CN1CCOCC1)CO3 (centres unmarked) [Example 1B, 3-(4-morpholinylmethyl)-5-methyl-6-(1-naphthylcarbonyl)-2,3-dihydropyrrolo1,2,3-de]-1,4-benzoxazine methanesulfonate]
[1]
  ED50: 8.6 mg/kg
[2]
  ED50: 35 mg/kg
[3]; iv
  ED50: 0.25 mg/kg
[3]; po, aqueous methanesulfonic acid (MS)
  ED50: 33 mg/kg
[3]; p.o., dose level 100, suspension in gum tragacanth (GT)
  ACH percent inhibition: 30%
[3]; s.c., dose level 100
  ACH percent inhibition: 73%
[4]
  minimal effective dose: 0.003 mg/kg
[5]
  CO percent inhibition (% I): -35%
